Assays:
Experiment in all cases: SelectScreen LanthaScreen Binding
Conditions in all cases: INX-0315 at 100nM
AAK1 = molecular target: T1, AAK1 (Homo sapiens, UniProt Q2M2I8)
T1 construct: purchased Thermo Fisher Scientific SelectScreen (plus Nanosyn / Reaction Biology for CDK/cyclin lines)
Excerpt: (§1) INX-315 was first evaluated in the SelectScreen Biochemical Kinase Profiling at Thermo Fisher Scientific (Madison, WI). The primary screen consisted of INX-315 dosed at a single concentration of 100 nmol/L in 1% DMSO across each platform within the SelectScreen array of assays, LanthaScreen Eu Kinase Binding Assay; AdaptaScreen; and Z'LyteScreen using preestablished conditions at Thermo Fisher Scientific as shown in Supplementary Table S2. […] The follow-up screen consisted of 10-point dose–response curves for INX-315 from 1 µmol/L to 0.0495 nmol/L.

ABL1 H396P = molecular target: T2, ABL1 H396P (Homo sapiens, UniProt P00519, H396P)
T2 construct: purchased Thermo Fisher Scientific SelectScreen (plus Nanosyn / Reaction Biology for CDK/cyclin lines)
Excerpt: as §1

ABL1 M351T = molecular target: T3, ABL1 M351T (Homo sapiens, UniProt P00519, M351T)
T3 construct: purchased Thermo Fisher Scientific SelectScreen (plus Nanosyn / Reaction Biology for CDK/cyclin lines)
Excerpt: as §1

ADCK3 = molecular target: T4, ADCK3 (Homo sapiens, UniProt Q8NI60)
T4 construct: purchased Thermo Fisher Scientific SelectScreen (plus Nanosyn / Reaction Biology for CDK/cyclin lines)
Excerpt: as §1

AMPK (A1/B1/G3) = molecular target: T5, AMPK (A1/B1/G3) (Homo sapiens, UniProt Q13131)
T5 construct: purchased Thermo Fisher Scientific SelectScreen (plus Nanosyn / Reaction Biology for CDK/cyclin lines)
Excerpt: as §1

AMPK (A2/B2/G2) = molecular target: T6, AMPK (A2/B2/G2) (Homo sapiens, UniProt P54646)
T6 construct: purchased Thermo Fisher Scientific SelectScreen (plus Nanosyn / Reaction Biology for CDK/cyclin lines)
Excerpt: as §1

BMPR1A (ALK3) = molecular target: T7, BMPR1A (ALK3) (Homo sapiens, UniProt P36894)
T7 construct: purchased Thermo Fisher Scientific SelectScreen (plus Nanosyn / Reaction Biology for CDK/cyclin lines)
Excerpt: as §1

BRAF = molecular target: T8, BRAF (Homo sapiens, UniProt P15056)
T8 construct: purchased Thermo Fisher Scientific SelectScreen (plus Nanosyn / Reaction Biology for CDK/cyclin lines)
Excerpt: as §1

CDK2/cyclin A1 = molecular target: T9, CDK2/cyclin A1 (Homo sapiens, UniProt P24941)
T9 construct: host or cells: HEK293
Excerpt: as §1

CDK8/cyclin C = molecular target: T10, CDK8/cyclin C (Homo sapiens, UniProt P49336)
T10 construct: purchased Thermo Fisher Scientific SelectScreen (plus Nanosyn / Reaction Biology for CDK/cyclin lines)
Excerpt: as §1

CLK4 = molecular target: T11, CLK4 (Homo sapiens, UniProt Q9HAZ1)
T11 construct: purchased Thermo Fisher Scientific SelectScreen (plus Nanosyn / Reaction Biology for CDK/cyclin lines)
Excerpt: as §1

DDR2 = molecular target: T12, DDR2 (Homo sapiens, UniProt Q16832)
T12 construct: purchased Thermo Fisher Scientific SelectScreen (plus Nanosyn / Reaction Biology for CDK/cyclin lines)
Excerpt: as §1

DDR2 N456S = molecular target: T13, DDR2 N456S (Homo sapiens, UniProt Q16832, N456S)
T13 construct: purchased Thermo Fisher Scientific SelectScreen (plus Nanosyn / Reaction Biology for CDK/cyclin lines)
Excerpt: as §1

EIF2AK2 (PKR) = molecular target: T14, EIF2AK2 (PKR) (Homo sapiens, UniProt P19525)
T14 construct: purchased Thermo Fisher Scientific SelectScreen (plus Nanosyn / Reaction Biology for CDK/cyclin lines)
Excerpt: as §1

EPHA3 = molecular target: T15, EPHA3 (Homo sapiens, UniProt P29320)
T15 construct: purchased Thermo Fisher Scientific SelectScreen (plus Nanosyn / Reaction Biology for CDK/cyclin lines)
Excerpt: as §1

ERN2 = molecular target: T16, ERN2 (Homo sapiens, UniProt Q76MJ5)
T16 construct: purchased Thermo Fisher Scientific SelectScreen (plus Nanosyn / Reaction Biology for CDK/cyclin lines)
Excerpt: as §1

FGFR3 K650M = molecular target: T17, FGFR3 K650M (Homo sapiens, UniProt P22607, K650M)
T17 construct: purchased Thermo Fisher Scientific SelectScreen (plus Nanosyn / Reaction Biology for CDK/cyclin lines)
Excerpt: as §1

FLT3 ITD = tested on: FLT3 ITD
Excerpt: as §1

KIT A829P = molecular target: T18, KIT A829P (Homo sapiens, UniProt P10721, A829P)
T18 construct: purchased Thermo Fisher Scientific SelectScreen (plus Nanosyn / Reaction Biology for CDK/cyclin lines)
Excerpt: as §1

KIT D816H = molecular target: T19, KIT D816H (Homo sapiens, UniProt P10721, D816H)
T19 construct: purchased Thermo Fisher Scientific SelectScreen (plus Nanosyn / Reaction Biology for CDK/cyclin lines)
Excerpt: as §1

KIT V559D T670I = molecular target: T20, KIT V559D T670I (Homo sapiens, UniProt P10721, T670I/V559D)
T20 construct: purchased Thermo Fisher Scientific SelectScreen (plus Nanosyn / Reaction Biology for CDK/cyclin lines)
Excerpt: as §1

MAP3K11 (MLK3) = molecular target: T21, MAP3K11 (MLK3) (Homo sapiens, UniProt Q16584)
T21 construct: purchased Thermo Fisher Scientific SelectScreen (plus Nanosyn / Reaction Biology for CDK/cyclin lines)
Excerpt: as §1

MAPK10 (JNK3) = molecular target: T22, MAPK10 (JNK3) (Homo sapiens, UniProt P53779)
T22 construct: purchased Thermo Fisher Scientific SelectScreen (plus Nanosyn / Reaction Biology for CDK/cyclin lines)
Excerpt: as §1

MAPK15 (ERK7) = molecular target: T23, MAPK15 (ERK7) (Homo sapiens, UniProt Q8TD08)
T23 construct: purchased Thermo Fisher Scientific SelectScreen (plus Nanosyn / Reaction Biology for CDK/cyclin lines)
Excerpt: as §1

MET D1228H = molecular target: T24, MET D1228H (Homo sapiens, UniProt P08581, D1228H)
T24 construct: purchased Thermo Fisher Scientific SelectScreen (plus Nanosyn / Reaction Biology for CDK/cyclin lines)
Excerpt: as §1

MLK4 = molecular target: T25, MLK4 (Homo sapiens, UniProt Q5TCX8)
T25 construct: purchased Thermo Fisher Scientific SelectScreen (plus Nanosyn / Reaction Biology for CDK/cyclin lines)
Excerpt: as §1

RAF1 (cRAF) Y340D Y341D = molecular target: T26, RAF1 (cRAF) Y340D Y341D (Homo sapiens, UniProt P04049, Y340D/Y341D)
T26 construct: purchased Thermo Fisher Scientific SelectScreen (plus Nanosyn / Reaction Biology for CDK/cyclin lines)
Excerpt: as §1

RET G691S = molecular target: T27, RET G691S (Homo sapiens, UniProt P07949, G691S)
T27 construct: purchased Thermo Fisher Scientific SelectScreen (plus Nanosyn / Reaction Biology for CDK/cyclin lines)
Excerpt: as §1

RET M918T = molecular target: T28, RET M918T (Homo sapiens, UniProt P07949, M918T)
T28 construct: purchased Thermo Fisher Scientific SelectScreen (plus Nanosyn / Reaction Biology for CDK/cyclin lines)
Excerpt: as §1

SIK3 = molecular target: T29, SIK3 (Homo sapiens, UniProt Q9Y2K2)
T29 construct: purchased Thermo Fisher Scientific SelectScreen (plus Nanosyn / Reaction Biology for CDK/cyclin lines)
Excerpt: as §1

STK32B (YANK2) = molecular target: T30, STK32B (YANK2) (Homo sapiens, UniProt Q9NY57)
T30 construct: purchased Thermo Fisher Scientific SelectScreen (plus Nanosyn / Reaction Biology for CDK/cyclin lines)
Excerpt: as §1

STK39 (STLK3) = molecular target: T31, STK39 (STLK3) (Homo sapiens, UniProt Q9UEW8)
T31 construct: purchased Thermo Fisher Scientific SelectScreen (plus Nanosyn / Reaction Biology for CDK/cyclin lines)
Excerpt: as §1

TEK (TIE2) R849W = molecular target: T32, TEK (TIE2) R849W (Homo sapiens, UniProt Q02763, R849W)
T32 construct: purchased Thermo Fisher Scientific SelectScreen (plus Nanosyn / Reaction Biology for CDK/cyclin lines)
Excerpt: as §1

TNK2 (ACK) = molecular target: T33, TNK2 (ACK) (Homo sapiens, UniProt Q07912)
T33 construct: purchased Thermo Fisher Scientific SelectScreen (plus Nanosyn / Reaction Biology for CDK/cyclin lines)
Excerpt: as §1

ULK2 = molecular target: T34, ULK2 (Homo sapiens, UniProt Q8IYT8)
T34 construct: purchased Thermo Fisher Scientific SelectScreen (plus Nanosyn / Reaction Biology for CDK/cyclin lines)
Excerpt: as §1

ULK3 = molecular target: T35, ULK3 (Homo sapiens, UniProt Q6PHR2)
T35 construct: purchased Thermo Fisher Scientific SelectScreen (plus Nanosyn / Reaction Biology for CDK/cyclin lines)
Excerpt: as §1

WNK2 = molecular target: T36, WNK2 (Homo sapiens, UniProt Q9Y3S1)
T36 construct: purchased Thermo Fisher Scientific SelectScreen (plus Nanosyn / Reaction Biology for CDK/cyclin lines)
Excerpt: as §1

ZAK = molecular target: T37, ZAK (Homo sapiens, UniProt Q9NYL2)
T37 construct: purchased Thermo Fisher Scientific SelectScreen (plus Nanosyn / Reaction Biology for CDK/cyclin lines)
Excerpt: as §1

T37 sequence (Q9NYL2 whole entry): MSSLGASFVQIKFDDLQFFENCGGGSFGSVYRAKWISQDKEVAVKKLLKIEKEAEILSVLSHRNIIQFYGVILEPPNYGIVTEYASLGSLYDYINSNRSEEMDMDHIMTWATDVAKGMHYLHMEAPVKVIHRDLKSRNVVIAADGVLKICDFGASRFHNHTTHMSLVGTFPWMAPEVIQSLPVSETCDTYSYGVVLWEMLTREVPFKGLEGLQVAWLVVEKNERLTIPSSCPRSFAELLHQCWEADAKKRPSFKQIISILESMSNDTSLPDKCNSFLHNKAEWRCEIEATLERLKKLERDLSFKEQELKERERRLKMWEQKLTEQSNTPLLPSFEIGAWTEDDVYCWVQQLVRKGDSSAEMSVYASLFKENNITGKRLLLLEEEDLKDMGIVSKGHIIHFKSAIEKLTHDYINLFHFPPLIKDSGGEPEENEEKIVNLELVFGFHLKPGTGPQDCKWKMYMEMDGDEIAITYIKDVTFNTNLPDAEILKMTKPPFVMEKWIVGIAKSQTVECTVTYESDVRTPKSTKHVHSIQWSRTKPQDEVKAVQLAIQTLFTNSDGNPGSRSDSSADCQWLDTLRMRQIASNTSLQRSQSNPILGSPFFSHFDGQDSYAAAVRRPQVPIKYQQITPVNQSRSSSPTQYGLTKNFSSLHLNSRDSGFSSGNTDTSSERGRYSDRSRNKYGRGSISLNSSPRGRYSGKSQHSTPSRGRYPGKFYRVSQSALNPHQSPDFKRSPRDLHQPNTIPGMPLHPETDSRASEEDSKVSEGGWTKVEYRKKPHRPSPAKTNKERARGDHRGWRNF
T6 sequence (P54646 whole entry): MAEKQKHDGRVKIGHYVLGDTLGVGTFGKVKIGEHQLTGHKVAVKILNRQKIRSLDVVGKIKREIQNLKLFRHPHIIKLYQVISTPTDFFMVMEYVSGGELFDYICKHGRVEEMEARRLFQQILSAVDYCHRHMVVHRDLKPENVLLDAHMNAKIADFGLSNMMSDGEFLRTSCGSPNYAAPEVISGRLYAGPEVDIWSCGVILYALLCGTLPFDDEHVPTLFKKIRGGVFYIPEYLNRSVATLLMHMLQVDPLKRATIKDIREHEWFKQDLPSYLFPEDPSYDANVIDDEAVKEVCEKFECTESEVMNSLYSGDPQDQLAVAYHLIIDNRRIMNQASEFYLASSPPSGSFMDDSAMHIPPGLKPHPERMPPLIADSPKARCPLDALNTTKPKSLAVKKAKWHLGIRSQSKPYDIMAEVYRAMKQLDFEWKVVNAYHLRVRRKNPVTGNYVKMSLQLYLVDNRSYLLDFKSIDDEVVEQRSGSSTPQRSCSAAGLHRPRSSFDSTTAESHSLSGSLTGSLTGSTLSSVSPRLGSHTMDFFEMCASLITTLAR
T6 sequence (O43741 whole entry partner): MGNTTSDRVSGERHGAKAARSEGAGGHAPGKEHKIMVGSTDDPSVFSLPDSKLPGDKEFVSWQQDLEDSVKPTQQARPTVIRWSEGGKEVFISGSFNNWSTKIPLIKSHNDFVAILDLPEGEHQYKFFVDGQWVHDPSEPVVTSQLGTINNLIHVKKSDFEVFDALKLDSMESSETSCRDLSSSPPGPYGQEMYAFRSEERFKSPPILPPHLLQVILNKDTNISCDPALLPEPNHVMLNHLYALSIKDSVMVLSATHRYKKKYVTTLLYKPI
T6 sequence (Q9UGJ0 whole entry partner): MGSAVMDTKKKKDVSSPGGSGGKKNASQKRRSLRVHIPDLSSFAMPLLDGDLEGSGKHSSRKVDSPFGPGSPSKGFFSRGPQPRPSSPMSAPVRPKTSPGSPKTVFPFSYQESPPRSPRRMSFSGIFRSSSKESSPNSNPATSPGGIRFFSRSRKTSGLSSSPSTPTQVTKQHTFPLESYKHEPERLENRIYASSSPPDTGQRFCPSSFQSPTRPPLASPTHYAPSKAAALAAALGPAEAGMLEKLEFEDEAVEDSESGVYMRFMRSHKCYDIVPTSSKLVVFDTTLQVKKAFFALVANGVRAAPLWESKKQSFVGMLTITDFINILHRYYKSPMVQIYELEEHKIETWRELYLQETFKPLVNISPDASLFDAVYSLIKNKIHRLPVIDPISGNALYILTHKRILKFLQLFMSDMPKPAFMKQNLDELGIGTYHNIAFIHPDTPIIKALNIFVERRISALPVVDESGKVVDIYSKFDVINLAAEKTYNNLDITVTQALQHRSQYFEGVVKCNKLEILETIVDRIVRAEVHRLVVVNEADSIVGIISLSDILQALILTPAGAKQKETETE
T11 sequence (Q9HAZ1 whole entry): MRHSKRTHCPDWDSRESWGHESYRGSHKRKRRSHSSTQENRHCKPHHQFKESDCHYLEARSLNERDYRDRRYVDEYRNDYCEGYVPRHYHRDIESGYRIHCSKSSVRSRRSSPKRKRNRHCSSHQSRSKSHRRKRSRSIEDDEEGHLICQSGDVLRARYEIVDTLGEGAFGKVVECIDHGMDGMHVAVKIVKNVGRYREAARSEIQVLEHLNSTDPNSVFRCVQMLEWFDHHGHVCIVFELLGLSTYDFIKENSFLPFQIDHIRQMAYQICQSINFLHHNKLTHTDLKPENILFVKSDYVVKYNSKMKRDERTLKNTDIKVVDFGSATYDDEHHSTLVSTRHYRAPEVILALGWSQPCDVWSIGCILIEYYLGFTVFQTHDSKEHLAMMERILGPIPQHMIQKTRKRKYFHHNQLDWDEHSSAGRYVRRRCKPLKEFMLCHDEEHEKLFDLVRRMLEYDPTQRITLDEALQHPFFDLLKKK
T20 sequence (P10721 26-976 V559D/T670I): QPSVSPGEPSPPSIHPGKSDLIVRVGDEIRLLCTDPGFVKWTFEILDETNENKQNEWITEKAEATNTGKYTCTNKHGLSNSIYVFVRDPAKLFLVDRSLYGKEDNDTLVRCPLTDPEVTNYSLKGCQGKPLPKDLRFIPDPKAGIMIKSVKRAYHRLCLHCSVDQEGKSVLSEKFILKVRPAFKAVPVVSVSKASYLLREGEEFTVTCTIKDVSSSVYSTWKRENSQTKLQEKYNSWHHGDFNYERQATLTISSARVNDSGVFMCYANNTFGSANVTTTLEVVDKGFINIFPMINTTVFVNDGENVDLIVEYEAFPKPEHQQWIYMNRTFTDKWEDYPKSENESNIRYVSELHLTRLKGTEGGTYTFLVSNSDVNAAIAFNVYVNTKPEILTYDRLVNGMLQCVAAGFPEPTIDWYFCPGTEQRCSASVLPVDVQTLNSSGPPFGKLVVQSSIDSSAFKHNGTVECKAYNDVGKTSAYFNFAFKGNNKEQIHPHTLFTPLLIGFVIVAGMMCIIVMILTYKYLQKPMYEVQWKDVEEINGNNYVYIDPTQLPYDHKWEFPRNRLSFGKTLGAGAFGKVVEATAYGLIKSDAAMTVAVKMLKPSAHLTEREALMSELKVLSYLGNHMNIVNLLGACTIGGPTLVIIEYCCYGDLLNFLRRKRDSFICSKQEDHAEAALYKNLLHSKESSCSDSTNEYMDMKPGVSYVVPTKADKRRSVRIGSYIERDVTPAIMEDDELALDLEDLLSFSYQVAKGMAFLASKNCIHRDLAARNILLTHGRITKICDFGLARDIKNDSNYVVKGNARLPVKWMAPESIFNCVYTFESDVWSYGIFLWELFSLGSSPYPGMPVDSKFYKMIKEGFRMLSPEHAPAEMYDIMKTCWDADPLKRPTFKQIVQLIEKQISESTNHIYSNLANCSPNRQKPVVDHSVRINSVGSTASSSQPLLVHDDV
T24 sequence (P08581 25-1390 D1228H): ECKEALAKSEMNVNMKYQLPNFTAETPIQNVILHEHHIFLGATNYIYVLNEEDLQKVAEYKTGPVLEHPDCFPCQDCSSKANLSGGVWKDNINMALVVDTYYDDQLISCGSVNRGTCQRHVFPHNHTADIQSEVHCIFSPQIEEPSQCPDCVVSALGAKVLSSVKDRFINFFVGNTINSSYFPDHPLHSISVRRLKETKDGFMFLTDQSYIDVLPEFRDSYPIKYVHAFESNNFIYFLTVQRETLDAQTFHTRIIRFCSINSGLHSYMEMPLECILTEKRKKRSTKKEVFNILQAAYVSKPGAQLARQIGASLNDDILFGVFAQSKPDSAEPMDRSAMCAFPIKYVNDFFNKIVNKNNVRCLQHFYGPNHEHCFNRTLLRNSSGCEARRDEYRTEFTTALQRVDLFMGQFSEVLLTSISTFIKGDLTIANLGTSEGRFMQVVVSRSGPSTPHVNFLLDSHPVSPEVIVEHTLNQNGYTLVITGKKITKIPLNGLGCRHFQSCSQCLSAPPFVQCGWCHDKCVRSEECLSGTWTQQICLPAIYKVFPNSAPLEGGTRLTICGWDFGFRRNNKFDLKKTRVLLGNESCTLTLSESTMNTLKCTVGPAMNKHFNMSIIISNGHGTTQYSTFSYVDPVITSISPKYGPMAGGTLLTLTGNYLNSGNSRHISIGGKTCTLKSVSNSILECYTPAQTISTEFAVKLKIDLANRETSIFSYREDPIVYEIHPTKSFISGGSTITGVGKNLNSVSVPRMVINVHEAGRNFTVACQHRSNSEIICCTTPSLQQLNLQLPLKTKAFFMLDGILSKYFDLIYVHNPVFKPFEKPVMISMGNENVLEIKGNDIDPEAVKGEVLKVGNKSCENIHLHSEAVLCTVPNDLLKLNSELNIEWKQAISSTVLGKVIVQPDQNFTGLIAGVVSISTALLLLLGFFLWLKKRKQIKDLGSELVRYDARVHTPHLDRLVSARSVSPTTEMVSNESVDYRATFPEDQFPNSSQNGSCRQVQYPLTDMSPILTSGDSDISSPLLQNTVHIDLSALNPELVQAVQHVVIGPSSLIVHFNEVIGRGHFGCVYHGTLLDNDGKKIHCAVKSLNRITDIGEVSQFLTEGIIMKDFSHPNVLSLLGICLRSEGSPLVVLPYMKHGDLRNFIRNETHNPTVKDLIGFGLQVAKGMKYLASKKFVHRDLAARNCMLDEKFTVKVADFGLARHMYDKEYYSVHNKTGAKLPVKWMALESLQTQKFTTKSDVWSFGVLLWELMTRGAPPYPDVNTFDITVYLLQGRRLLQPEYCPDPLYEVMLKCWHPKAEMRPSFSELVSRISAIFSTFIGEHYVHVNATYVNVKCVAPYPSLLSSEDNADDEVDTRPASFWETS
T19 sequence (P10721 26-976 D816H): as the sequence (P10721 26-976 V559D/T670I) above, with D534V, I645T, D791H counted along it

NS(=O)(=O)c1ccc(Nc2ncc3cc4n(c3n2)C2(CCCCC2)C(=O)NN4)cc1 [INX-315]
inhibition at 0.1 µM (AAK1): 77% | inhibition at 0.1 µM (ABL1 H396P): 12% | inhibition at 0.1 µM (ABL1 M351T): 13% | inhibition at 0.1 µM (ADCK3): 49% | inhibition at 0.1 µM (AMPK (A1/B1/G3)): 19% | inhibition at 0.1 µM (AMPK (A2/B2/G2)): 11% | inhibition at 0.1 µM (BMPR1A (ALK3)): 8% | inhibition at 0.1 µM (BRAF): -1% | inhibition at 0.1 µM (CDK2/cyclin A1): 94% | inhibition at 0.1 µM (CDK8/cyclin C): 0% | inhibition at 0.1 µM (CLK4): -2% | inhibition at 0.1 µM (DDR2): 18% | inhibition at 0.1 µM (DDR2 N456S): 14% | inhibition at 0.1 µM (EIF2AK2 (PKR)): -8% | inhibition at 0.1 µM (EPHA3): -1% | inhibition at 0.1 µM (ERN2): 2% | inhibition at 0.1 µM (FGFR3 K650M): 14% | % Inhibition Avg (FLT3 ITD): 36% | inhibition at 0.1 µM (KIT A829P): 28% | inhibition at 0.1 µM (KIT D816H): 38% | inhibition at 0.1 µM (KIT V559D T670I): 16% | inhibition at 0.1 µM (MAP3K11 (MLK3)): 13% | inhibition at 0.1 µM (MAPK10 (JNK3)): 12% | inhibition at 0.1 µM (MAPK15 (ERK7)): 87% | inhibition at 0.1 µM (MET D1228H): -6% | inhibition at 0.1 µM (MLK4): -5% | inhibition at 0.1 µM (RAF1 (cRAF) Y340D Y341D): -2% | inhibition at 0.1 µM (RET G691S): 35% | inhibition at 0.1 µM (RET M918T): 42% | inhibition at 0.1 µM (SIK3): 2% | inhibition at 0.1 µM (STK32B (YANK2)): 3% | inhibition at 0.1 µM (STK39 (STLK3)): 14% | inhibition at 0.1 µM (TEK (TIE2) R849W): 7% | inhibition at 0.1 µM (TNK2 (ACK)): 0% | inhibition at 0.1 µM (ULK2): 3% | inhibition at 0.1 µM (ULK3): 25% | inhibition at 0.1 µM (WNK2): -9% | inhibition at 0.1 µM (ZAK): 3%

From article PMC10905675, “INX-315, a Selective CDK2 Inhibitor, Induces Cell Cycle Arrest and Senescence in Solid Tumors” (Cancer Discovery, 2023)
